Laboratory results reported in US20230203060A1 (GENFLEET THERAPEUTICS (SHANGHAI) INC., priority 2020, published 2023).

How the values were obtained:
[1] = system: KRAS G12C mutant NCI-H358 cells; test: Cell proliferation inhibition experiment, 3D spheroid, CellTiter-Glo, NCI-H358; type: cell-based, human; conditions: Homo sapiens, NCI-H358, 120 h, NCI-H358 (KRAS G12C mutant) 3D spheroid, 5 days with compound, CellTiter-Glo; read-out: H358 IC50
In short: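 Luminescence (CellTiter-Glo, 30 min incubation) was read after 5 days of compound treatment of overnight-formed spheroids of 800 H358 or 400 A549 cells in 2% FBS medium. Inhibition relative to DMSO and blank controls was fitted with a four-parameter model to yield IC50.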

[2] = system: phosphorylated ERK downstream of KRAS G12C in MIA PaCa2 cells; test: Cell p-ERK detection experiment (HTRF) in MIA PaCa2; type: cell-based, human; conditions: Homo sapiens, MIA PaCa-2, 2 h, MIA PaCa2 cells, 2 hours with compound, Advance ERK phospho-T202/Y204 HTRF kit; read-out: p-ERK IC50
In short: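 KRAS G12C-mutant MIA PaCa2 cells (2.5E4 per well, overnight) exposed 2 h to a 3.16-fold compound dilution series at 0.1% DMSO. Lysates probed 4 h with HTRF antibodies to ERK phospho-T202/Y204; inhibition versus DMSO control and blank, IC50 by four-parameter fit.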

IC50 [1] [nM] | IC50 [2] [nM] | Structure (SMILES)
5 | 63 | C=CC(=O)N1CCN2C(=O)c3c(N4CC(O)CC4(C)C)nc(-c4c(O)cccc4F)c(C)c3OC[C@H]2C1 (single isomer, unassigned) [Z336-2]
2.3 | 16 | C=CC(=O)N1CCN2C(=O)c3c(N4CC(=O)N(CC)C[C@@H]4C)nc(-c4c(O)cccc4F)c(Cl)c3OC[C@H]2C1 [Z319-1, (6aR)-8-acryloyl-4-chloro-1-((S)-4-ethyl-2-methyl-5-oxopiperazin-1-yl)-3-(2-fluoro-6-hydroxyphenyl)-6,6a,7,8,9,10-hexahydro-12H-pyrazino[2,1-c]pyrido[3,4-f][1,4]oxazepin-12-one]
6 | 46 | C=CC(=O)N1CCN2C(=O)c3c(N4CC[C@@H](OC)[C@@H]4C)nc(-c4c(O)cccc4F)c(Cl)c3OC[C@H]2C1 [Z338-1, (6aR)-8-acryloyl-4-chloro-3-(2-fluoro-6-hydroxyphenyl)-1-((2S,3R)-3-methoxy-2-methylpyrrolidin-1-yl)-6,6a,7,8,9,10-hexahydro-12H-pyrazino[2,1-c]pyrido[3,4-f][1,4]oxazepin-12-one]
4.4 | 34 | C=CC(=O)N1CCN2C(=O)c3c(N4C[C@H](N(C)C)CC4(C)C)nc(-c4c(O)cccc4F)c(Cl)c3OC[C@H]2C1 (single isomer, unassigned) [Z324-2]
1.3 | 17 | C=CC(=O)N1CCN2C(=O)c3c(N4CCN(C(=O)C5CC5)C[C@@H]4C)nc(-c4c(O)cccc4F)c(Cl)c3OC[C@H]2C1 [Z320-1, (6aR)-8-acryloyl-4-chloro-1-((S)-4-(cyclopropanecarbonyl)-2-methylpiperazin-1-yl)-3-(2-fluoro-6-hydroxyphenyl)-6,6a,7,8,9,10-hexahydro-12H-pyrazino[2,1-c]pyrido[3,4-f][1,4]oxazepin-12-one]
0.7 | 6 | C=CC(=O)N1CCN2C(=O)c3c(N4CC(N(C)C5COC5)CC4(C)C)nc(-c4c(O)cccc4F)c(Cl)c3OC[C@H]2C1 (stereo partly drawn) [Z326, (6aR)-8-acryloyl-4-chloro-1-(2,2-dimethyl-4-(methyl(oxetan-3-yl)amino)pyrrolidin-1-yl)-3-(2-fluoro-6-hydroxyphenyl)-6,6a,7,8,9,10-hexahydro-12H-pyrazino[2,1-c]pyrido[3,4-f][1,4]oxazepin-12-one]
1.1 | 12 | C=CC(=O)N1CCN2C(=O)c3c(N4CCC(OC)C4(C)C)nc(-c4c(O)cccc4F)c(Cl)c3OC[C@H]2C1 (stereo partly drawn) [Z241a, (6aR)-8-acryloyl-4-chloro-3-(2-fluoro-6-hydroxyphenyl)-1-(3-methoxy-2,2-dimethylpyrrolidin-1-yl)-6,6a,7,8,9,10-hexahydro-12H-pyrazino[2,1-c]pyrido[3,4-f][1,4]oxazepin-12-one]
1 | 18 | C=CC(=O)N1CCN2C(=O)c3c(N4C[C@@H](N5CCOCC5)CC4(C)C)nc(-c4c(O)cccc4F)c(Cl)c3OC[C@H]2C1 (single isomer, unassigned) [Z297-2]
4.8 | 23 | C=CC(=O)N1CCN2C(=O)c3c(N4C[C@@H](N(C)CCOC)C[C@@H]4C)nc(-c4c(O)cccc4F)c(Cl)c3OC[C@H]2C1 [Z358-1]
3 | 25 | C=CC(=O)N1CCN2C(=O)c3c(N4CC[C@H](N(C)C)C4(C)C)nc(-c4c(O)cccc4F)c(Cl)c3OC[C@H]2C1 (single isomer, unassigned) [Z360-2]
8.3 | 93 | C=CC(=O)N1CCN2C(=O)c3c(N4C[C@@H](OC)C[C@@H]4C)nc(-c4c(O)cccc4F)c(F)c3OC[C@H]2C1 [Z359-1, (6aR)-8-actyloyl-4-fluoro-3-(2-fluoro-6-hydroxyphenyl)-1-((2S,4S)-4-methoxy-2-methylpyrrolidin-1-yl)-6,6a,7,8,9,10-hexahydro-12H-pyrazino[2,1-c]pyrido[3,4-f][1,4]oxazepin-12-one]
11.8 | 85 | C=CC(=O)N1CCN2C(=O)c3c(N4CC[C@@H](N(C)C)C4(C)C)nc(-c4c(O)cccc4F)c(Cl)c3OC[C@H]2C1 (single isomer, unassigned) [Z360-1]
4.5 | 50 | C=CC(=O)N1CCN2C(=O)c3c(N4CCN(CCOC)C(C)(C)C4)nc(-c4c(O)cccc4F)c(Cl)c3OC[C@H]2C1 [Z321, (6aR)-8-acryloyl-4-chloro-3-(2-fluoro-6-hydroxyphenyl)-1-(4-(2-methoxyethyl)-3,3-dimethylpiperazin-1-yl)-6,6a,7,8,9,10-hexahydro-12H-pyrazino[2,1-c]pyrido[3,4-f][1,4]oxazepin-12-one]
1 | 11 | C=CC(=O)N1CCN2C(=O)c3c(N4C[C@H](N5CCOCC5)CC4(C)C)nc(-c4c(O)cccc4F)c(Cl)c3OC[C@H]2C1 (single isomer, unassigned) [Z297-1]
1.3 | 20 | C=CC(=O)N1CCN2C(=O)c3c(N4CCN(C(=O)CC)C[C@@H]4C)nc(-c4c(O)cccc4F)c(Cl)c3OC[C@H]2C1 [Z316-1, (6aR)-8-acryloyl-4-chloro-3-(2-fluoro-6-hydroxyphenyl)-1-((S)-2-methyl-4-propionylpiperazin-1-yl)-6,6a,7,8,9,10-hexahydro-12H-pyrazino[2,1-c]pyrido[3,4-f][1,4]oxazepin-12-one]
0.5 | 5 | C=CC(=O)N1CCN2C(=O)c3c(N4C[C@H](OC)CC4(C)C)nc(-c4c(O)cccc4F)c(Cl)c3OC[C@H]2C1 (single isomer, unassigned) [Z244-2]
4.5 | 36 | C=CC(=O)N1CCN2C(=O)c3c(N4CCN(CC)C(C)(C)C4)nc(-c4c(O)cccc4F)c(Cl)c3OC[C@H]2C1 [Z322, (6aR)-8-actyloyl-4-chloro-3-(2-fluoro-6-hydroxyphenyl)-1-(4-ethyl-3,3-dimethylpiperazin-1-yl)-6,6a,7,8,9,10-hexahydro-12H-pyrazino[2,1-c]pyrido[3,4-f][1,4]oxazepin-12-one]
2.4 | 32 | C=CC(=O)N1CCN2C(=O)c3c(N4C[C@H](N(C)CCOC)CC4(C)C)nc(-c4c(O)cccc4F)c(Cl)c3OC[C@H]2C1 (single isomer, unassigned) [Z296-2]
0.6 | 8 | C=CC(=O)N1CCN2C(=O)c3c(N4C[C@@](C)(O)CC4(C)C)nc(-c4c(O)cccc4F)c(Cl)c3OC[C@H]2C1 (single isomer, unassigned) [Z243-1]
3 | 27 | C=CC(=O)N1CCN2C(=O)c3c(N4C[C@H](OC)C[C@@H]4C)nc(-c4c(O)cccc4F)c(Cl)c3OC[C@H]2C1 [Z259a, (6aR)-8-acryloyl-4-chloro-3-(2-fluoro-6-hydroxyphenyl)-1-((2S,4R)-4-methoxy-2-methylpyrrolidin-1-yl)-6,6a,7,8,9,10-hexahydro-12H-pyrazino[2,1-c]pyrido[3,4-f][1,4]oxazepin-12-one]
15.4 | 134 | C=CC(=O)N1CCN2C(=O)c3c(N4C[C@H](O)[C@H]4C)nc(-c4c(O)cccc4F)c(Cl)c3OC[C@H]2C1 (single isomer, unassigned) [Z102-4]
